Data taken from the supplement of paper PMC11061612.

Key:
[1] = compound: Cc1cc2ncnn2cc1Nc1ncc2c(n1)n(C1CCOCC1)c(=O)n2C [AZD7648]; settings: max 10 µM
Summary of the method: (§1)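 Cancer cell lines were seeded in 1536-well plates in 7.5 μl DMEM/F12 or RPMI with 10% FBS, held 24 hours at 37°C and 5% CO2, then dosed for 72 hours (final DMSO typically 0.2%). Viability was read by CellTiter-Glo 2.0 luminescence and scaled between blank-well and DMSO-well means. The single-agent IC50 comes from dose responses fitted to a two-parameter logistic curve with a non-linear mixed effects model.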

[2] = compound: C1CN(CCC1(C(=O)N[C@@H](CCO)C2=CC=C(C=C2)Cl)N)C3=NC=NC4=C3C=CN4 [AZD5363]; settings: max 10 µM
Summary of the method: as §1

[3] = compound: CCN(CCO)CCCOc1ccc2c(Nc3cc(CC(=O)Nc4cccc(F)c4)[nH]n3)ncnc2c1 [AZD2811]; settings: max 1 µM
Summary of the method: as §1

[4] = compound: C[C@@H](Nc1cc(F)cc(F)c1)c1cc(C(=O)N(C)C)cc2c(=O)cc(N3CCOCC3)oc12 [AZD8186]; settings: max 10 µM
Summary of the method: as §1

[5] = compound: N#Cc1cnc(Nc2cc(NC[C@H]3CNCCO3)c(C(F)(F)F)cn2)cn1 [SRA737]; settings: max 10 µM
Summary of the method: as §1

[6] = compound: CN(C)CCCOc1ccc(-c2ccc3ncc4c(c3c2)n(C2CCOCC2)c(=O)n4C)cn1 [AZD0156]; settings: max 3 µM
Summary of the method: as §1

[7] = compound: COc1nnc2ccc(N3CCC(c4ccc(OCCN5CCN(C)C(=O)[C@H]5C)cc4)CC3)nn12 [AZD5153]; settings: max 1 µM
Summary of the method: as §1

[8] = compound: CN(CC[C@H](CSC1=CC=CC=C1)NC2=C(C=C(C=C2)S(=O)(=O)NC(=O)C3=CC=C(C=C3)N4CCC(CC4)[C@H](C5=CC=CC=C5C6=CC=C(C=C6)Cl)O)S(=O)(=O)C(F)(F)F)CCO [AZD4320]; settings: max 1 µM
Summary of the method: as §1

[9] = compound: COc1cc([C@@H]2c3cc4c(cc3[C@@H](O[C@@H]3O[C@@H]5CO[C@@H](C)O[C@H]5[C@H](O)[C@H]3O)[C@H]3COC(=O)[C@H]23)OCO4)cc(OC)c1O [Etoposide]; settings: max 10 µM
Summary of the method: as §1

[10] = compound: COc1cc2ncnc(Nc3ccc(F)c(Cl)c3)c2cc1OCCCN1CCOCC1 [Gefitinib]; settings: max 10 µM
Summary of the method: as §1

[11] = compound: O=c1[nH]cc(F)c(=O)[nH]1 [5-Fluorouracil]; settings: max 20 µM
Summary of the method: as §1

[12] = compound: COc1cccc(OCCCN)c1-c1cc(Nc2cnc(C#N)cn2)n[nH]1 [Prexasertib]; settings: max 1 µM
Summary of the method: as §1

[13] = compound: O=C(c1cc(Cc2n[nH]c(=O)c3ccccc23)ccc1F)N1CCN(C(=O)C2CC2)CC1 [Olaparib]; settings: max 10 µM
Summary of the method: as §1

[14] = compound: CCc1c2c(nc3ccc(O)cc13)-c1cc3c(c(=O)n1C2)COC(=O)[C@]3(O)CC [SN-38]; settings: max 0.3 µM
Summary of the method: as §1

[15] = compound: CC(=O)Nc1cccc(-n2c(=O)n(C3CC3)c(=O)c3c(Nc4ccc(I)cc4F)n(C)c(=O)c(C)c32)c1 [Trametinib]; settings: max 1 µM
Summary of the method: as §1

[16] = compound: Nc1ccn([C@@H]2O[C@H](CO)[C@@H](O)C2(F)F)c(=O)n1 [Gemcitabine]; settings: max 0.3 µM
Summary of the method: as §1

[17] = compound: Cc1nc(-c2cn3c(n2)-c2ccc(-c4cnn(C(C)(C)C(N)=O)c4)cc2OCC3)n(C(C)C)n1 [Taselisib]; settings: max 10 µM
Summary of the method: as §1

[18] = compound: C[C@@H](c1ccc2nccn2c1)n1nnc2ncc(-c3cnn(C)c3)nc21 [Savolitinib]; settings: max 1 µM
Summary of the method: as §1

[19] = compound: Cc1c2c(nn1C)CSCc1cc(n(C)n1)CSc1cc(c3ccccc3c1)OCCCc1c(C(=O)O)n(C)c3c-2c(Cl)ccc13 [AZD5991]; settings: max 1 µM
Summary of the method: as §1

[20] = compound: CS(=O)(=O)CCNCc1ccc(-c2ccc3ncnc(Nc4ccc(OCc5cccc(F)c5)c(Cl)c4)c3c2)o1 [Lapatinib]; settings: max 10 µM
Summary of the method: as §1

[21] = compound: CC(=O)c1c(C)c2cnc(Nc3ccc(N4CCNCC4)cn3)nc2n(C2CCCC2)c1=O [Palbociclib]; settings: max 10 µM
Summary of the method: as §1

[22] = compound: NC1(c2ccc(-c3nc4ccn5c(=O)[nH]nc5c4cc3-c3ccccc3)cc2)CCC1 [MK-2206]; settings: max 10 µM
Summary of the method: as §1

[23] = compound: CC(=O)O[C@H]1C(=O)[C@@]2(C)[C@H]([C@H](OC(=O)c3ccccc3)[C@]3(O)C[C@H](OC(=O)[C@H](O)[C@@H](NC(=O)c4ccccc4)c4ccccc4)C(C)=C1C3(C)C)[C@]1(OC(C)=O)CO[C@@H]1C[C@@H]2O [Paclitaxel]; settings: max 3 µM
Summary of the method: as §1

[24] = compound: C[C@@H]1COCCN1C2=NC(=NC(=C2)C3(CC3)[S@](=N)(=O)C)C4=C5C=CNC5=NC=C4 [AZD6738]; settings: max 10 µM
Summary of the method: as §1

[25] = compound: CC1=C(C(=CC=C1)Cl)NC(=O)C2=CN=C(S2)NC3=CC(=NC(=N3)C)N4CCN(CC4)CCO [Dasatinib]; settings: max 2 µM
Summary of the method: as §1

[26] = compound: CC1(C)CCC(CN2CCN(c3ccc(C(=O)NS(=O)(=O)c4ccc(NCC5CCOCC5)c([N+](=O)[O-])c4)c(Oc4cnc5[nH]ccc5c4)c3)CC2)=C(c2ccc(Cl)cc2)C1 [Venetoclax]; settings: max 1 µM
Summary of the method: as §1

[27] = compound: O=C(Nc1ccc2[nH]nc(-c3ccncc3)c2c1)[C@@H]1CCN(CC(=O)N2CCN(c3ccc(-c4ncccn4)cc3)CC2)C1; settings: max 5 µM
Summary of the method: as §1

[28] = compound: COc1cccc2c1C(=O)c1c(O)c3c(c(O)c1C2=O)C[C@@](O)(C(=O)CO)C[C@@H]3O[C@H]1C[C@H](N)[C@H](O)[C@H](C)O1 [Doxorubicin]; settings: max 1 µM
Summary of the method: as §1

[29] = compound: C[C@@H](Oc1cc(-c2cnn(C3CCNCC3)c2)cnc1N)c1c(Cl)ccc(F)c1Cl [Crizotinib]; settings: max 10 µM
Summary of the method: as §1

[30] = compound: CC(C)n1c(=O)n(C)c2cnc3cc(F)c(-c4ccc(OCCCN5CCCCC5)nc4)cc3c21 [AZD1390]; settings: max 0.3 µM
Summary of the method: as §1

[31] = compound: C=CCn1c(=O)c2cnc(Nc3ccc(N4CCN(C)CC4)cc3)nc2n1-c1cccc(C(C)(C)O)n1 [AZD1775]; settings: max 3 µM
Summary of the method: as §1

[32] = compound: Cn1cnc2c(F)c(Nc3ccc(Br)cc3Cl)c(C(=O)NOCCO)cc21 [Selumetinib]; settings: max 10 µM
Summary of the method: as §1

[33] = compound: CC1=CN2[C@@H](C1)C=NC3=CC(=C(C=C3C2=O)OC)OCCCCCOC4=C(C=C5C(=C4)N=C[C@@H]6CC(=CN6C5=O)C)OC [SG3199]; settings: max 0.001 µM
Summary of the method: as §1

[34] = compound: C1CC(C1)(C(=O)[O-])C(=O)[O-].N.N.[Pt+2] [Carboplatin]; settings: max 10 µM
Summary of the method: as §1

[35] = compound: COc1cc(Nc2ncc3c(n2)-c2ccc(Cl)cc2C(c2c(F)cccc2OC)=NC3)ccc1C(=O)O [Alisertib]; settings: max 10 µM
Summary of the method: as §1

Row | Cell Line | IC50, cell viability 72 h [1] | IC50, cell viability 72 h [2] | IC50, cell viability 72 h [3] | IC50, cell viability 72 h [4] | IC50, cell viability 72 h [5] | IC50, cell viability 72 h [6] | IC50, cell viability 72 h [7] | IC50, cell viability 72 h [8] | IC50, cell viability 72 h [9] | IC50, cell viability 72 h [10] | IC50, cell viability 72 h [11] | IC50, cell viability 72 h [12] | IC50, cell viability 72 h [13] | IC50, cell viability 72 h [14] | IC50, cell viability 72 h [15] | IC50, cell viability 72 h [16] | IC50, cell viability 72 h [17] | IC50, cell viability 72 h [18] | IC50, cell viability 72 h [19] | IC50, cell viability 72 h [20] | IC50, cell viability 72 h [21] | IC50, cell viability 72 h [22] | IC50, cell viability 72 h [23] | IC50, cell viability 72 h [24] | IC50, cell viability 72 h [25] | IC50, cell viability 72 h [26] | IC50, cell viability 72 h [27] | IC50, cell viability 72 h [28] | IC50, cell viability 72 h [29] | IC50, cell viability 72 h [30] | IC50, cell viability 72 h [31] | IC50, cell viability 72 h [32] | IC50, cell viability 72 h [33] | IC50, cell viability 72 h [34] | IC50, cell viability 72 h [35]
1 | NCI-H28 (Mesothelioma) | > 10 µM | > 10 µM | > 1 µM | > 10 µM | > 10 µM | > 3 µM | > 1 µM | > 1 µM | > 10 µM | > 10 µM | > 20 µM | 0.327 µM | > 10 µM | > 0.3 µM | > 1 µM | 0.14 µM | > 10 µM | > 1 µM | > 1 µM | > 10 µM | > 10 µM | > 10 µM | 0.825 µM | > 10 µM | 0.304 µM | > 1 µM | > 5 µM | > 1 µM | > 10 µM | > 0.3 µM | > 3 µM | > 10 µM | > 0.001 µM | > 10 µM | > 10 µM
2 | NCI-H69 (Small Cell Lung Carcinoma) | > 10 µM | > 10 µM | 0.342 µM | > 10 µM | > 10 µM | > 3 µM | > 1 µM | 0.0595 µM | > 10 µM | > 10 µM | > 20 µM | > 1 µM | > 10 µM | 0.123 µM | > 1 µM | > 0.3 µM | 0.546 µM | > 1 µM | > 1 µM | > 10 µM | > 10 µM | 4.55 µM | 0.00464 µM | > 10 µM | > 2 µM | > 1 µM | > 5 µM | > 1 µM | 5.7 µM | > 0.3 µM | 2.37 µM | > 10 µM | > 0.001 µM | > 10 µM | 1.11 µM
3 | NCI-H2461 (Mesothelioma) | > 10 µM | > 10 µM | > 1 µM | > 10 µM | > 10 µM | > 3 µM | > 1 µM | > 1 µM | > 10 µM | > 10 µM | > 20 µM | 0.0482 µM | > 10 µM | 0.0918 µM | > 1 µM | > 0.3 µM | 6.27 µM | > 1 µM | > 1 µM | > 10 µM | > 10 µM | > 10 µM | 0.735 µM | 4.16 µM | > 2 µM | > 1 µM | > 5 µM | 0.379 µM | > 10 µM | > 0.3 µM | 0.63 µM | > 10 µM | > 0.001 µM | > 10 µM | > 10 µM
4 | NCI-H2795 (Mesothelioma) | > 10 µM | > 10 µM | > 1 µM | > 10 µM | > 10 µM | > 3 µM | 0.84 µM | > 1 µM | 3.82 µM | > 10 µM | 19.6 µM | 0.146 µM | > 10 µM | 0.0169 µM | 0.0384 µM | 0.0258 µM | 4.73 µM | > 1 µM | 0.974 µM | > 10 µM | > 10 µM | > 10 µM | 0.0853 µM | 9.01 µM | 0.578 µM | > 1 µM | 0.658 µM | 0.715 µM | 7.78 µM | > 0.3 µM | > 3 µM | 3.14 µM | > 0.001 µM | > 10 µM | 1.3 µM
5 | OC-314 (Ovarian Carcinoma) | > 10 µM | > 10 µM | > 1 µM | 7.39 µM | > 10 µM | > 3 µM | 0.0709 µM | > 1 µM | 0.876 µM | > 10 µM | 17.8 µM | 0.0394 µM | > 10 µM | 0.00872 µM | > 1 µM | 0.0344 µM | 1.6 µM | > 1 µM | > 1 µM | > 10 µM | > 10 µM | > 10 µM | 0.0059 µM | 2.61 µM | 0.205 µM | > 1 µM | > 5 µM | 0.0639 µM | > 10 µM | > 0.3 µM | 0.671 µM | > 10 µM | > 0.001 µM | > 10 µM | 6.23 µM
6 | PCI-30 (Head and Neck Carcinoma) | > 10 µM | > 10 µM | > 1 µM | > 10 µM | > 10 µM | > 3 µM | > 1 µM | > 1 µM | > 10 µM | > 10 µM | > 20 µM | 0.074 µM | > 10 µM | 0.11 µM | > 1 µM | > 0.3 µM | > 10 µM | > 1 µM | > 1 µM | > 10 µM | > 10 µM | > 10 µM | > 3 µM | > 10 µM | > 2 µM | > 1 µM | > 5 µM | > 1 µM | > 10 µM | > 0.3 µM | > 3 µM | > 10 µM | > 0.001 µM | > 10 µM | > 10 µM
